“And” between values parts separate entries of the source, which are not always exact repeats. Equal values may be shown once. Inconclusive results and toxic doses are left out. Peptide text beside a SMILES is read from it. * marks the point of attachment. Cbz = O=C(OCc1ccccc1)*
Tested on: P388 leukemia ip, CD2F1 mice, survival T/C
Assay: NCI In Vivo Anticancer Drug Screen. Data for tumor model P388 Leukemia (intraperitoneal) in CD2F1 (CDF1) mice
Conditions: endpoint: median survival time, higher = longer survival
How it was run: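 Mice carrying the transplanted tumor received test compound or vehicle. Survival was recorded in each group, and the value is the treated-group measurement divided by that of the vehicle-treated control group.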

[1] = dose: 60.0 mg/kg/injection, schedule: Q01DX005 (ip), vehicle: saline with Tween-80
[2] = dose: 120.0 mg/kg/injection, schedule: Q01DX005 (ip), vehicle: saline with Tween-80
[3] = dose: 240.0 mg/kg/injection, schedule: Q01DX005 (ip), vehicle: saline with Tween-80
[4] = dose: 50.0 mg/kg/injection, schedule: Q01DX009 (ip), vehicle: saline with Tween-80
[5] = dose: 200.0 mg/kg/injection, schedule: Q01DX009 (ip), vehicle: saline with Tween-80
[6] = dose: 50.0 mg/kg/injection, schedule: Q01DX005 (ip), vehicle: Klucel (hydroxypropylcellulose) (HPC)
[7] = dose: 100.0 mg/kg/injection, schedule: Q01DX005 (ip), vehicle: Klucel (hydroxypropylcellulose) (HPC)
[8] = dose: 200.0 mg/kg/injection, schedule: Q01DX005 (ip), vehicle: Klucel (hydroxypropylcellulose) (HPC)

## O=C(CCBr)N1CCN(C(=O)CCBr)CC1
dose: 2.5 mg/kg/injection, schedule: Q01DX009 (ip), vehicle: saline
  T/C: 100 % of control
dose: 5.0 mg/kg/injection, schedule: Q01DX009 (ip), vehicle: saline
  T/C: 104 % of control
dose: 5.0 mg/kg/injection, schedule: Q01DX010 (ip), vehicle: Klucel (hydroxypropylcellulose) (HPC)
  T/C: 108 % of control
dose: 10.0 mg/kg/injection, schedule: Q01DX009 (ip), vehicle: saline
  T/C: 112 % of control
dose: 10.0 mg/kg/injection, schedule: Q01DX010 (ip), vehicle: Klucel (hydroxypropylcellulose) (HPC)
  T/C: 120 % of control
dose: 20.0 mg/kg/injection, schedule: Q01DX009 (ip), vehicle: saline
  T/C: 112 % of control
dose: 40.0 mg/kg/injection, schedule: Q01DX009 (ip), vehicle: saline
  T/C: 169 % of control
dose: 40.0 mg/kg/injection, schedule: Q01DX010 (ip), vehicle: Klucel (hydroxypropylcellulose) (HPC)
  T/C: 171 % of control
dose: 80.0 mg/kg/injection, schedule: Q01DX009 (ip), vehicle: saline
  T/C: 110 % of control
dose: 80.0 mg/kg/injection, schedule: Q01DX010 (ip), vehicle: Klucel (hydroxypropylcellulose) (HPC)
  T/C: 91 % of control

## O=C([O-])CC(=O)[O-].[Cu+2].[OH3+].[OH3+]
dose: 15.0 mg/kg/injection, schedule: Q01DX005 (ip), vehicle: Klucel (hydroxypropylcellulose) (HPC)
  T/C: 99 % of control

## CC1(C)Cc2ccccc2/C1=C/c1ccccn1
[1]
  T/C: 98 % of control
[2]
  T/C: 100 % of control
[3]
  T/C: 108 % of control

## COc1cccc2c1C(=O)c1c(O)c3c(c(O)c1C2=O)C[C@@](O)(C(C)=O)C[C@@H]3OC1CC(NC(=O)C(N)CC(C)C)C(O)C(C)O1 (stereo partly drawn)
dose: 3.12 mg/kg/injection, schedule: Q04DX003 (ip), vehicle: saline
  T/C: 109 % of control
dose: 6.25 mg/kg/injection, schedule: Q04DX003 (ip), vehicle: saline
  T/C: 119 % of control
dose: 25.0 mg/kg/injection, schedule: Q04DX003 (ip), vehicle: saline
  T/C: 163 % of control and 186 % of control
dose: 50.0 mg/kg/injection, schedule: Q04DX003 (ip), vehicle: saline
  T/C: 163 % of control

## C1=CN2C(c3ccccc3)=NON(c3ncccn3)C2N=C1 (stereo not drawn)
[1]
  T/C: 96 % of control
[2]
  T/C: 91 % of control
[3]
  T/C: 90 % of control

## CCCN1CCc2cccc3c2C1Cc1ccc(O)c(O)c1-3 (stereo not drawn)
[4]
  T/C: 121 % of control
dose: 50.0 mg/kg/injection, schedule: Q01DX009 (ip), vehicle: saline
  T/C: 113 % of control
[5]
  T/C: 109 % of control

## CCO/C=C/C(=O)O
[1]
  T/C: 106 % of control
[2]
  T/C: 100 % of control
[3]
  T/C: 107 % of control

## Brc1cnc2ccccn12
[4]
  T/C: 101 % of control
dose: 100.0 mg/kg/injection, schedule: Q01DX009 (ip), vehicle: saline with Tween-80
  T/C: 102 % of control
[5]
  T/C: 114 % of control

## Nc1cc2c(c[n+](CCCBr)c3ccccc23)c2ccccc12
dose: 1.56 mg/kg/injection, schedule: Q04DX003 (ip), vehicle: other
  T/C: 118 % of control
dose: 3.13 mg/kg/injection, schedule: Q04DX003 (ip), vehicle: other
  T/C: 118 % of control
dose: 6.25 mg/kg/injection, schedule: Q04DX003 (ip), vehicle: other
  T/C: 122 % of control

## O=c1[nH]c(=O)n(C(c2ccccc2)(c2ccccc2)c2ccccc2)cc1N(CCO)CCO
[6]
  T/C: 100 % of control
[7]
  T/C: 97 % of control
[8]
  T/C: 98 % of control

## CC(=O)O.[In]
dose: 0.1 mg/mouse/injection, schedule: Q01DX020 (oral), vehicle: saline with Tween-80
  T/C: 100 % of control

## O=c1c2ccccc2sc2c1c(N(CCO)CCO)cc1ccccc12
dose: 25.0 mg/kg/injection, schedule: Q01DX005 (ip), vehicle: distilled water + Tween-80
  T/C: 102 % of control
dose: 50.0 mg/kg/injection, schedule: Q01DX005 (ip), vehicle: distilled water + Tween-80
  T/C: 97 % of control
dose: 100.0 mg/kg/injection, schedule: Q01DX005 (ip), vehicle: distilled water + Tween-80
  T/C: 92 % of control

## O=C(OCCS(=O)(=O)CCOC(=O)ON1C(=O)CCC1=O)ON1C(=O)CCC1=O
[6]
  T/C: 109 % of control
[7]
  T/C: 109 % of control
[8]
  T/C: 115 % of control

## Cc1ccc(C(=Nc2ccccc2)N=P(c2ccccc2)(c2ccccc2)c2ccccc2)cc1
dose: 25.0 mg/kg/injection, schedule: Q01DX005 (ip), vehicle: saline with Tween-80
  T/C: 103 % of control
dose: 50.0 mg/kg/injection, schedule: Q01DX005 (ip), vehicle: saline with Tween-80
  T/C: 113 % of control and 122 % of control
dose: 100.0 mg/kg/injection, schedule: Q01DX005 (ip), vehicle: saline with Tween-80
  T/C: 120 % of control

## COc1ccc(/C=C(\C)[N+](=O)[O-])cc1OC
dose: 12.5 mg/kg/injection, schedule: Q01DX009 (ip), vehicle: distilled water + Tween-80
  T/C: 100 % of control
dose: 25.0 mg/kg/injection, schedule: Q01DX009 (ip), vehicle: distilled water + Tween-80
  T/C: 121 % of control
dose: 50.0 mg/kg/injection, schedule: Q01DX009 (ip), vehicle: distilled water + Tween-80
  T/C: 115 % of control
dose: 100.0 mg/kg/injection, schedule: Q01DX009 (ip), vehicle: distilled water + Tween-80
  T/C: 115 % of control

## C[C@@H]1CC[C@]2(C)CC[C@]3(C)C(=CC[C@@H]4[C@@]5(C)CC[C@@H](OC(=O)c6ccc(O)cc6)C(C)(C)[C@@H]5C[C@H](O)[C@]43C)[C@@H]2[C@H]1C(=O)O
dose: 0.2 mg/kg/injection, schedule: Q01DX009 (ip), vehicle: saline with Tween-80
  T/C: 159 % of control
dose: 12.5 micrograms/kg/injection, schedule: Q01DX009 (ip), vehicle: saline with Tween-80
  T/C: 117 % of control
dose: 25.0 micrograms/kg/injection, schedule: Q01DX009 (ip), vehicle: saline with Tween-80
  T/C: 117 % of control
dose: 50.0 micrograms/kg/injection, schedule: Q01DX009 (ip), vehicle: saline with Tween-80
  T/C: 118 % of control
dose: 400.0 micrograms/kg/injection, schedule: Q01DX009 (ip), vehicle: saline with Tween-80
  T/C: 163 % of control

## SCc1ccccc1.[Cu+2]
dose: 6.25 mg/kg/injection, schedule: Q01DX009 (ip), vehicle: saline with Tween-80
  T/C: 99 % of control
dose: 12.5 mg/kg/injection, schedule: Q01DX009 (ip), vehicle: saline with Tween-80
  T/C: 91 % of control
dose: 25.0 mg/kg/injection, schedule: Q01DX009 (ip), vehicle: saline with Tween-80
  T/C: 97 % of control

## CCNC(=O)CCC(NS(=O)(=O)c1ccc(C)cc1)C(=O)O (stereo not drawn)
dose: 100.0 mg/kg/injection, schedule: Q04DX002 (ip), vehicle: Klucel (hydroxypropylcellulose) (HPC)
  T/C: 100 % of control
dose: 200.0 mg/kg/injection, schedule: Q04DX002 (ip), vehicle: Klucel (hydroxypropylcellulose) (HPC)
  T/C: 100 % of control
dose: 400.0 mg/kg/injection, schedule: Q04DX002 (ip), vehicle: Klucel (hydroxypropylcellulose) (HPC)
  T/C: 105 % of control

## CCOC(=O)c1c(N)c(C(=O)c2ccccc2)n2ccc3ccccc3c12
dose: 100.0 mg/kg/injection, schedule: Q04DX002 (ip), vehicle: saline with Tween-80
  T/C: 100 % of control
dose: 200.0 mg/kg/injection, schedule: Q04DX002 (ip), vehicle: saline with Tween-80
  T/C: 99 % of control
dose: 400.0 mg/kg/injection, schedule: Q04DX002 (ip), vehicle: saline with Tween-80
  T/C: 92 % of control

## O=C(NCCNC(=O)C12CC3CC(CC(C3)C1)C2)C12CC3CC(CC(C3)C1)C2
dose: 6.0 mg/kg/injection, schedule: Q01DX005 (ip), vehicle: Klucel (hydroxypropylcellulose) (HPC)
  T/C: 88 % of control
dose: 12.0 mg/kg/injection, schedule: Q01DX005 (ip), vehicle: Klucel (hydroxypropylcellulose) (HPC)
  T/C: 88 % of control
dose: 100.0 mg/kg/injection, schedule: Q01DX001 (ip), vehicle: saline with Tween-80
  T/C: 94 % of control
dose: 200.0 mg/kg/injection, schedule: Q01DX001 (ip), vehicle: saline with Tween-80
  T/C: 95 % of control
dose: 400.0 mg/kg/injection, schedule: Q01DX001 (ip), vehicle: saline with Tween-80
  T/C: 86 % of control

## CCC1(O)CC(O)c2c(O)c3c(c(O)c2C1C(=O)OC)C(=O)c1cccc(O)c1C3=O (stereo not drawn)
dose: 60.0 mg/kg/injection, schedule: Q01DX005 (ip), vehicle: Klucel (hydroxypropylcellulose) (HPC)
  T/C: 96 % of control
dose: 120.0 mg/kg/injection, schedule: Q01DX005 (ip), vehicle: Klucel (hydroxypropylcellulose) (HPC)
  T/C: 94 % of control
dose: 240.0 mg/kg/injection, schedule: Q01DX005 (ip), vehicle: Klucel (hydroxypropylcellulose) (HPC)
  T/C: 105 % of control

## O=C(NC(CO)C(=O)NC(Cc1ccc(O)cc1)C(=O)O)OCc1ccccc1 (stereo not drawn) (Cbz-Ser-Tyr-OH; configuration not given here)
[6]
  T/C: 98 % of control
[7]
  T/C: 100 % of control
[8]
  T/C: 101 % of control

## O=c1[nH]c(=S)[nH]c2c(=O)[nH]c(=S)[nH]c12
dose: 12.5 mg/kg/injection, schedule: Q01DX009 (ip), vehicle: Klucel (hydroxypropylcellulose) (HPC)
  T/C: 107 % of control
dose: 25.0 mg/kg/injection, schedule: Q01DX009 (ip), vehicle: Klucel (hydroxypropylcellulose) (HPC)
  T/C: 101 % of control
dose: 50.0 mg/kg/injection, schedule: Q01DX009 (ip), vehicle: Klucel (hydroxypropylcellulose) (HPC)
  T/C: 101 % of control and 111 % of control

From PubChem BioAssay AID330 (DTP/NCI, 2004)
